Measurements from ChEMBL document CHEMBL1122738, “A cyclic angiotensin antagonist: [1,8-cysteine]angiotensin II” (1984).
Positions of bridges follow the written chain, without caps; N, C: chain ends. Residues, ends and D or L forms follow the SMILES beside them. Chains are numbered I, II in the order given.

Species on record: Rattus norvegicus
Assay: Minimum effective concentration required to abolish the response to an ED75 dose of ANG II (10e-8 M) in the isolated rat uterus assay
Format: functional
Details: read-out: MEC

Row | SMILES | minimal effective concentration
1 | CC[C@H](C)[C@H](NC(=O)[C@H](Cc1ccc(O)cc1)NC(=O)[C@@H](NC(=O)[C@H](CCCN=C(N)N)NC(=O)[C@@H](N)CSCNC(C)=O)C(C)C)C(=O)N[C@@H](Cc1c[nH]cn1)C(=O)N1CCC[C@H]1C(=O)N[C@@H](CSCNC(C)=O)C(=O)O | 0.24 µM
2 | CC[C@H](C)[C@H](NC(=O)[C@@H]1CCCN1C(=O)[C@H](Cc1c[nH]cn1)NC(=O)[C@@H](NC(=O)[C@H](Cc1ccc(O)cc1)NC(=O)[C@@H](NC(=O)[C@H](CCCN=C(N)N)NC(=O)CNC)C(C)C)[C@@H](C)CC)C(=O)O | 0.021 µM
3 | CC[C@H](C)[C@@H]1NC(=O)[C@H](Cc2ccc(O)cc2)NC(=O)[C@H](C(C)C)NC(=O)[C@H](CCCN=C(N)N)NC(=O)[C@@H](N)CSSC[C@@H](C(=O)O)NC(=O)[C@@H]2CCCN2C(=O)[C@H](Cc2c[nH]cn2)NC1=O (H-CRVYIHPC-OH; disulfide 1-8) | 3.3 µM
4 | CC[C@H](C)[C@@H]1NC(=O)[C@H](Cc2ccc(O)cc2)NC(=O)[C@H](C(C)C)NC(=O)[C@H](CCCN=C(N)N)NC(=O)[C@@H](N)CSSC[C@H](N)C(=O)N[C@@H](CCCN=C(N)N)C(=O)N[C@@H](C(C)C)C(=O)N[C@@H](Cc2ccc(O)cc2)C(=O)N[C@@H]([C@@H](C)CC)C(=O)N[C@@H](Cc2c[nH]cn2)C(=O)N2CCC[C@H]2C(=O)N[C@H](C(=O)O)CSSC[C@@H](C(=O)O)NC(=O)[C@@H]2CCCN2C(=O)[C@H](Cc2c[nH]cn2)NC1=O (I: H-CRVYIHPC-OH / II: H-CRVYIHPC-OH; disulfide I:1-II:1, I:8-II:8) | 9.6 µM
